Results on 8 compounds are retold here after publication PMC137588 (BMC Neuroscience, 2002).

One may read the IC50 as the concentration that inhibits the measured activity by half. Usually Ki stands for a dissociation constant, usually derived from enzyme kinetics or from competition with a known ligand.

Where two headings read alike, the source gives them in different places.

Assay [1] concerns the target T1, mouse δ opioid receptor (Mus musculus, UniProt P32300). In words: cell-based. In kind it is cell-based. Particulars: for Emax: HEK293, read-out: Max Inhibition %.
Assay [2] concerns the target T1, mouse δ opioid receptor. In kind it is binding. Particulars: read-out: AFFINITY Ki.
The subject of assay [3] is μ opioid receptors. The conditions noted are these: ref Gharagozlou et al. unpublished results; cited from earlier work.
For assay [4], the system named is μ opioid receptors. The conditions noted are these: ref Gharagozlou et al. unpublished results; cited from earlier work. This is another data set of the same source.
Assay [5] has as its target T1, mouse δ opioid receptor.

T1 sequence (P32300 whole entry): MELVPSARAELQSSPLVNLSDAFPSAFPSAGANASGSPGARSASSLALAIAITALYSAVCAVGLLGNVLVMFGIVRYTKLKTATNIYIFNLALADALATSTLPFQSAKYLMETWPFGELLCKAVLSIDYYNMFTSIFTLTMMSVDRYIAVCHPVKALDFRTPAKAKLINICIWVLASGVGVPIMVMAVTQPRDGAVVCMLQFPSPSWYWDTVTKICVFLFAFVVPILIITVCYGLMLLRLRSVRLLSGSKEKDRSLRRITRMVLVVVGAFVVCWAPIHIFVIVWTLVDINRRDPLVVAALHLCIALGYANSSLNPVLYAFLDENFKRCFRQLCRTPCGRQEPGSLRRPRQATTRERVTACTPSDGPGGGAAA

For `C=CCN1CCC2(C)c3cc(O)ccc3CC1C2C` (centres unmarked) [SKF 10047], the Emax in assay [1] came out at 68 ± 9%. In assay [1] (IC50 ± SEM), this compound returned an IC50 of 184 ± 121 nM.

For `C=C1C[C@H](C)[C@H]2[C@H]3Cc4ccc(O)cc4[C@@]2(CCN3CC2CCC2)C1` [Xorphanol], in assay [1], the “Agonist efficacy classification at δ opioid receptors” value is on record as “super agonists” and the “Max Inhibition %” value is given as 76 ± 4^$$ ## %. The IC50 in assay [1] (read-out: IC50 ± SEM) amounted to 8 ± 2 nM. In addition, the inhibition constant (Ki) in assay [2] amounted to 1 ± 0.2 nM. Further, the “affinity at μ opioid receptors” value in assay [3] was “less than 1 nM”. Besides, the “activation profile at μ opioid receptors” value in assay [4] was “very weak agonist”.

As to `C=CCN1CC[C@]23c4c5ccc(O)c4O[C@H]2[C@@H](O)C=C[C@H]3[C@H]1C5` [Nalorphine], in assay [5], the “Classification as antagonist at δ opioid receptor” value is given as “Antagonist”.

For `CN1CC[C@]2(C)c3cc(O)ccc3C[C@H]1C2(C)CCC(=O)CCC1CCCC1` (some centres unmarked) [WIN 44,441], the “Max Inhibition %” value in assay [1] is on record as 54 ± 6 %. Moreover, the IC50 in assay [1] (read-out: IC50 ± SEM) was 40 ± 25 nM. Also, the Ki in assay [2] turned out to be 2.6 ± 0.9 nM. Also, the “affinity at μ opioid receptors” value in assay [3] is reported as “less than 1 nM”. The “activation profile at μ opioid receptors” value in assay [4] is “antagonist”.

Consider `C[C@H]1[C@H]2Cc3ccc(O)cc3[C@]1(C)CCN2CC1CC1` [Cyclazocine], for which, in assay [1], the Emax stood at 53 ± 2%. For the same compound, the IC50 in assay [1] (IC50 ± SEM) turned out to be 6 ± 3 nM.

With `Oc1ccc2c(c1)[C@@]13CCCC[C@@]1(O)[C@@H](C2)N(CC1CCC1)CC3` [Butorphanol], in assay [1], the Emax stood at 64 ± 4%. Moreover, in assay [1] (IC50 ± SEM), the IC50 was 61 ± 12 nM.

With `C[C@@]12CCCCC[C@@H](Cc3ccc(O)cc31)[C@@H]2N` [Dezocine], the Emax in assay [1] was determined as 39%. For the same compound, the IC50 in assay [1] (IC50 ± SEM) stood at 477 ± 152 nM.

Take `C[C@H]1[C@H]2Cc3ccc(O)cc3[C@]1(C)CCN2C` [Metazocine]: in assay [1], the “Agonist efficacy classification at δ opioid receptors” value is “super agonists” and the Emax is 77 ± 4%. In assay [1] (IC50 ± SEM), this compound showed an IC50 of 159 ± 70 nM.
